# Results reported in patent US20080064871A1, “Production Method of Nitrogen-Containing Fused Ring Compounds” (Japan Tobacco Inc., priority 2006, published 2008).
# Target: T1, human URAT1 (Homo sapiens, UniProt Q96S37)
# T1 construct: Human URAT1 full length cDNA was subcloned to expression vector pcDNA3.1; expressed in transfected cells; host or cells: HEK293 cells (pcDNA3.1, geneticin-selected)
# T1 sequence (Q96S37 1-553): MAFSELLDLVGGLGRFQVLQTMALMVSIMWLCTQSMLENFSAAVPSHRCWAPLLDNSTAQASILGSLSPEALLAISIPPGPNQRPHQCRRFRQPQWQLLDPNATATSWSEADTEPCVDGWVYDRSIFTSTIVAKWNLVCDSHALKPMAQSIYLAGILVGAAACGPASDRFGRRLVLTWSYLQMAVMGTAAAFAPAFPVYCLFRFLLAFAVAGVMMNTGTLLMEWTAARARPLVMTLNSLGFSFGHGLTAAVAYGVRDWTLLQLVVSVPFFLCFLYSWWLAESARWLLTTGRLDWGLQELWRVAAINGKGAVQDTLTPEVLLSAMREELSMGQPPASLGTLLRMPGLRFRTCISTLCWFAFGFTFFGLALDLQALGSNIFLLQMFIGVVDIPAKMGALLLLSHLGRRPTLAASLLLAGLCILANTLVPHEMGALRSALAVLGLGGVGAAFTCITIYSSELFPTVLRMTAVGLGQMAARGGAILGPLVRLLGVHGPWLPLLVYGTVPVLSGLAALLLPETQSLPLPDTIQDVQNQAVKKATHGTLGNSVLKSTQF
# Experiment: Uric acid transport inhibitory test using human URAT1-expressing cells
# Format: cell-based
# Conditions: human URAT1 expressing HEK293 cells, uptake of 14C-labeled uric acid for 5 min, room temperature; read-out: hURAT1 (IC50, concentration necessary for inhibiting the uric acid transport rate by 50%)
# From the text: Reference Experimental Example 1 Uric Acid Transport Inhibitory Test Using Human Urat1-Expressing Cells
# Human URAT1 full length cDNA was subcloned to expression vector pcDNA3.1 and human URAT1 gene was transfected into human embryonic kidney derived cell line (HEK293 cells) by liposome method using Lipofectamine2000. Simultaneously, HEK293 cells transfected with expression vector pcDNA3.1 alone (hereinafter mock cells) were also produced. HEK293 cells expressing human URAT1 gene or mock cells were selected with geneticin resistance as an index. The functional expression of human URAT1 gene was confirmed by a method similar to the following method, using transport of uric acid labeled with ^14C into the cells as an index.
# Human URAT1 expressing HEK293 cells or mock cells were cultured in Dulbecco's modified Eagle's MEM medium (high glucose) containing 10% fetal bovine serum, 0.5 mg/mL geneticin sulfate, 100 units/mL penicillin and 100 μg/mL streptomycin under the conditions of 37° C. and 5% CO2 in an incubator. The cells were plated in a 96 well plate (poly-D-Lysine coated) at 1×10^5 cells/well and the following uric acid transport inhibitory test was performed 24 hr later. This test was performed at room temperature.
# After the medium was removed by aspiration from each well, the cells were washed once with Hank's Balanced Salt Solution (HBSS) and preincubated with HBSS ([…]) for 5 min. HBSS was aspirated and an assay buffer (wherein NaCl in the above-mentioned HBSS had been substituted with Na-gluconate) containing various concentrations of the Example compound and a radioactive ligand (uric acid labeled with 14C; final concentration […]) was added to each well at […] and an uptake reaction was carried out for 5 min. After the reaction, the cells were washed twice with ice-cold HBSS ([…]), and Microscin ti TM 20 (PerkinElmer) was added at […]. The cells were lysed by stirring and the radioactivity of each well was measured in a liquid scintillation counter (TOP COUNT, Packard).
# The uric acid transport rate (%) of the Example compound at each concentration was calculated relative to the radioactivity (difference in radioactivity between human URAT1 expressing HEK293 cells and mock cells without addition of Example compound (DMSO addition)) showing URAT1 specific uric acid transport as 100%, and the concentration (IC50) of the Example compound necessary for inhibiting the uric acid transport rate by 50% was determined. In Table-Table, “+++” means IC50 value of less than 100 nM, “++” means IC50 value of 100 nM to less than 1000 nM, and “+” means IC50 value of 1000 nM to less than 3000 nM.
structure (smiles),measurement,value
"O=C(c1ccc(O)c(Cl)c1)N1CCOc2ccccc21 [Example 1, (3-chloro-4-hydroxyphenyl)-(2,3-dihydrobenzo[1,4]oxazin-4-yl)-methanone]",IC50,< 100 nM
"O=C(c1ccc(O)c(Br)c1)N1CCOc2ccccc21 [Example 2, (3-bromo-4-hydroxyphenyl)-(2,3-dihydrobenzo[1,4]oxazin-4-yl)-methanone]",IC50,< 100 nM
"O=C(c1cc(Cl)c(O)c(Cl)c1)N1CCOc2ccccc21 [Example 3, (3,5-dichloro-4-hydroxyphenyl)-(2,3-dihydrobenzo[1,4]oxazin-4-yl)-methanone]",IC50,< 100 nM
"O=C(c1cc(Br)c(O)c(Br)c1)N1CCOc2ccccc21 [Example 4, (3,5-dibromo-4-hydroxyphenyl)-(2,3-dihydrobenzo[1,4]oxazin-4-yl)-methanone]",IC50,< 100 nM
"O=C(c1cc(I)c(O)c(I)c1)N1CCOc2ccccc21 [Example 5, (2,3-dihydrobenzo[1,4]oxazin-4-yl)-(4-hydroxy-3,5-diiodophenyl)-methanone]",IC50,< 100 nM
"O=C(c1cc(F)c(O)c(F)c1)N1CCOc2ccccc21 [Example 6, (3,5-difluoro-4-hydroxyphenyl)-(2,3-dihydrobenzo[1,4]oxazin-4-yl)-methanone]",IC50,100 to 1000 nM
"Cc1cc(C(=O)N2CCOc3ccccc32)cc(C)c1O [Example 7, (2,3-dihydrobenzo[1,4]oxazin-4-yl)-(4-hydroxy-3,5-dimethylphenyl)-methanone]",IC50,100 to 1000 nM
"O=C(c1cc(Cl)c(O)c(Cl)c1)N1CCSc2ccccc21 [Example 8, (3,5-dichloro-4-hydroxyphenyl)-(2,3-dihydrobenzo[1,4]thiazin-4-yl)-methanone]",IC50,100 to 1000 nM
"O=C(c1cc(Cl)c(O)c(Cl)c1)N1CCS(=O)(=O)c2ccccc21 [Example 10, (3,5-dichloro-4-hydroxyphenyl)-(1,1-dioxo-2,3-dihydro-1H-1λ^6-benzo[1,4]thiazin-4-yl)-methanone]",IC50,100 to 1000 nM
"Oc1c(Cl)cc(C(=S)N2CCOc3ccccc32)cc1Cl [Example 11, (3,5-dichloro-4-hydroxyphenyl)-(2,3-dihydrobenzo[1,4]oxazin-4-yl)-methanethione]",IC50,< 100 nM
"Cc1ccc2c(c1)N(C(=O)c1cc(Cl)c(O)c(Cl)c1)CCO2 [Example 12, (3,5-dichloro-4-hydroxyphenyl)-(6-methyl-2,3-dihydrobenzo[1,4]oxazin-4-yl)-methanone]",IC50,< 100 nM
"Cc1ccc2c(c1)OCCN2C(=O)c1cc(Cl)c(O)c(Cl)c1 [Example 13, (3,5-dichloro-4-hydroxyphenyl)-(7-methyl-2,3-dihydrobenzo[1,4]oxazin-4-yl)-methanone]",IC50,100 to 1000 nM
"Cc1cccc2c1N(C(=O)c1cc(Cl)c(O)c(Cl)c1)CCO2 [Example 14, (3,5-dichloro-4-hydroxyphenyl)-(5-methyl-2,3-dihydrobenzo[1,4]oxazin-4-yl)-methanone]",IC50,< 100 nM
"Cc1cccc2c1OCCN2C(=O)c1cc(Cl)c(O)c(Cl)c1 [Example 15, (3,5-dichloro-4-hydroxyphenyl)-(8-methyl-2,3-dihydrobenzo[1,4]oxazin-4-yl)-methanone]",IC50,< 100 nM
"O=C(c1cc(Cl)c(O)c(Cl)c1)N1CCOc2ccc3ccccc3c21 [Example 16, (3,5-dichloro-4-hydroxyphenyl)-(2,3-dihydronaphtho[2,1-b][1,4]oxazin-1-yl)-methanone]",IC50,< 100 nM
"COc1ccc2c(c1)N(C(=O)c1cc(Cl)c(O)c(Cl)c1)CCO2 [Example 17, (3,5-dichloro-4-hydroxyphenyl)-(6-methoxy-2,3-dihydrobenzo[1,4]oxazin-4-yl)-methanone]",IC50,< 100 nM
"COc1ccc2c(c1)OCCN2C(=O)c1cc(Cl)c(O)c(Cl)c1 [Example 18, (3,5-dichloro-4-hydroxyphenyl)-(7-methoxy-2,3-dihydrobenzo[1,4]oxazin-4-yl)-methanone]",IC50,100 to 1000 nM
"O=C(c1cc(Cl)c(O)c(Cl)c1)N1CCOc2ccc(O)cc21 [Example 19, (3,5-dichloro-4-hydroxyphenyl)-(6-hydroxy-2,3-dihydrobenzo[1,4]oxazin-4-yl)-methanone]",IC50,100 to 1000 nM
"O=C(c1cc(Cl)c(O)c(Cl)c1)N1CCOc2cc(O)ccc21 [Example 20, (3,5-dichloro-4-hydroxyphenyl)-(7-hydroxy-2,3-dihydrobenzo[1,4]oxazin-4-yl)-methanone]",IC50,100 to 1000 nM
"CCN(CC)S(=O)(=O)c1ccc2c(c1)N(C(=O)c1cc(Cl)c(O)c(Cl)c1)CCO2 [Example 21, 4-(3,5-dichloro-4-hydroxybenzoyl)-3,4-dihydro-2H-benzo[1,4]oxazine-6-sulfonic acid diethylamide]",IC50,100 to 1000 nM
"O=S(=O)(c1cc(Cl)c(O)c(Cl)c1)N1CCOc2ccccc21 [Example 22, 2,6-dichloro-4-(2,3-dihydrobenzo[1,4]oxazine-4-sulfonyl)phenol]",IC50,1000 to 3000 nM
"CC(C)(C)c1ccc2c(c1)N(C(=O)c1cc(Cl)c(O)c(Cl)c1)CCO2 [Example 23, (6-tert-butyl-2,3-dihydrobenzo[1,4]oxazin-4-yl)-(3,5-dichloro-4-hydroxyphenyl)-methanone]",IC50,1000 to 3000 nM
"O=C1COc2ccccc2N1C(=O)c1cc(Cl)c(O)c(Cl)c1 [Example 24, 4-(3,5-dichloro-4-hydroxybenzoyl)-4H-benzo[1,4]oxazin-3-one]",IC50,1000 to 3000 nM
"O=C(c1cc(Cl)c(O)c(Cl)c1)N1CCCc2ccccc21 [Example 26, (3,5-dichloro-4-hydroxyphenyl)-(3,4-dihydro-2H-quinolin-1-yl)-methanone]",IC50,100 to 1000 nM
"O=C(c1cc(Cl)c(O)c(Cl)c1)N1CCCCc2ccccc21 [Example 27, (3,5-dichloro-4-hydroxyphenyl)-(2,3,4,5-tetrahydrobenzo[b]azepin-1-yl)-methanone]",IC50,100 to 1000 nM
"O=C(c1cnc(O)c(Cl)c1)N1CCOc2ccccc21 [Example 29, (5-chloro-6-hydroxypyridin-3-yl)-(2,3-dihydrobenzo[1,4]oxazin-4-yl)-methanone]",IC50,1000 to 3000 nM
"O=C(c1cc([N+](=O)[O-])c(O)c([N+](=O)[O-])c1)N1CCOc2ccccc21 [Example 30, (2,3-dihydrobenzo[1,4]oxazin-4-yl)-(4-hydroxy-3,5-dinitrophenyl)-methanone]",IC50,100 to 1000 nM
"O=C(c1cc(Cl)c(O)c([N+](=O)[O-])c1)N1CCOc2ccccc21 [Example 31, (3-chloro-4-hydroxy-5-nitrophenyl)-(2,3-dihydrobenzo[1,4]oxazin-4-yl)-methanone]",IC50,< 100 nM
"O=C(c1cc(Cl)c(O)c(Cl)c1)N1CCOc2ccc(S(=O)(=O)N3CCCC3)cc21 [Example 33, (3,5-dichloro-4-hydroxyphenyl)-[6-(pyrrolidine-1-sulfonyl)-2,3-dihydrobenzo[1,4]oxazin-4-yl]-methanone]",IC50,100 to 1000 nM
"CN(C)S(=O)(=O)c1ccc2c(c1)N(C(=O)c1cc(Cl)c(O)c(Cl)c1)CCO2 [Example 35, 4-(3,5-dichloro-4-hydroxybenzoyl)-3,4-dihydro-2H-benzo[1,4]oxazine-6-sulfonic acid dimethylamide]",IC50,1000 to 3000 nM
"O=C(c1cc(Cl)c(O)c(Cl)c1)N1CCOc2cccnc21 [Example 36, (3,5-dichloro-4-hydroxyphenyl)-(2,3-dihydropyrido[3,2-b][1,4]oxazin-4-yl)-methanone]",IC50,100 to 1000 nM
"O=C(c1cc(Cl)cc(Cl)c1O)N1CCOc2ccccc21 [Example 38, (3,5-dichloro-2-hydroxyphenyl)-(2,3-dihydrobenzo[1,4]oxazin-4-yl)-methanone]",IC50,100 to 1000 nM
